Structures can show the parent of a compound that is named as a salt.
Experiments:
[1] = molecular target: T1, p38alpha (Homo sapiens, UniProt Q16539); assay: P38alpha enzyme inhibition assay (Alphascreen kinase activity assay); format: biochemical; settings: 100 pM p38alpha, 250 μM ATP, 2 hours pre-incubation at 25° C., ATF-2 fusion protein substrate; read-out: p38α inhibition (IC50 values)
T1 construct: purchased Invitrogen PV3304
Protocol: P38alpha Enzyme Inhibition Assay.
The inhibitory activity of compounds was determined using an Alphascreen® (Perkin Elmer) based kinase activity assay. Kinase reactions consisted of 25 mM HEPES pH 7.5, 10 mM MgCl2, 100 μM Na3VO4, 2 mM DTT, 0.05 mg/ml Tween 20, 100 pM p38alpha (Invitrogen, PV3304), 1% DMSO and 0.3 μg/ml ATF-2 fusion protein (New England Biolabs, 9224). Compounds were incubated under these conditions for 2 hours, at 25° C., prior to the initiation of the kinase activity by the addition of the 250 μM ATP. Reaction volumes were 20 uL. After 1 hr at 25° C. reactions were stopped by the adding 10 uL of 25 mM HEPES pH 7.5 containing 62.5 mM EDTA, 0.05% Triton X-100, 10% BSA and 0.83 ng/uL anti-phospho-ATF2 antibody (Abeam, ab28812). Detection was performed by measuring luminescence following the addition of Alphascreen Donor beads (Perkin Elmer 6765300) and Protein A Alphascreen Acceptor beads (Perkin Elmer 6760137), both at a final concentration of 20 ug/ml. IC50 values were determined from concentration-response curves.

[2] = system: LPS-stimulated PBMC TNFα release; assay: LPS-stimulated PBMC TNFα release assay; format: cell-based; settings: human PBMCs, LPS 10 ng/ml, 18 h, TNFα by ELISA, at least three separate experiments, read-out: p38α inhibition (IC50 values), inhibition of TNFα release
Protocol: LPS-Stimulated PBMC TNFα Release Assay.
Peripheral Blood Mononuclear Cells (PBMCs) were isolated from healthy human volunteer blood using a standard density gradient centrifugation technique. Citrated blood was placed onto Histopaque™ and centrifuged. The PBMCs were removed from the density gradient interface and washed in phosphate buffered saline (PBS). The PBMCs were suspended in RPMI 1640 medium (without serum), dispensed into a 96-well plate and incubated at 37° C. for 3 h in a humidified incubator. After incubation, the medium was replaced (with medium containing 1% foetal bovine serum), and the plate incubated at 37° C., for 1 h, in the presence of test compound or the appropriate vehicle. LPS (10 ng/ml), or an appropriate vehicle control, was then added to the cells, and the plate returned to the incubator for 18 h. Cell-free supernatants were removed and assayed for TNFα levels using an ELISA kit from R&D Systems.
A dose response curve to each test compound was performed and the effect of compound in each experiment was expressed as a percentage inhibition of the control TNFα release. Dose response curves were plotted and compound potency (IC50) was determined. Compounds were tested in at least three separate experiments.

T1 sequence (Q16539 whole entry, the tested form may be a part): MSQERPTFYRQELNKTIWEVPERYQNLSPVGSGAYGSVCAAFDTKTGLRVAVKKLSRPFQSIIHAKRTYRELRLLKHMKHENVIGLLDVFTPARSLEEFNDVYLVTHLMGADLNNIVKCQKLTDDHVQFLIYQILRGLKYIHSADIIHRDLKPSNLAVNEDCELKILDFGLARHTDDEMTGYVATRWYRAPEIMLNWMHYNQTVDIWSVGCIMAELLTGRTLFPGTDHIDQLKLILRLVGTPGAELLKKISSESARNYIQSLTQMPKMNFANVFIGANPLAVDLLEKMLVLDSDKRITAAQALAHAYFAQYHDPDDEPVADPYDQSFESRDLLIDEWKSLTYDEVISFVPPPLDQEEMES

IC50 [1] [nM]	Structure (SMILES)	IC50 [2] [nM]
< 10	CC(C)c1nnc2ccc(O[C@@H]3CC[C@H](NC(=O)Nc4cc(C(C)(C)C)nn4-c4cccc(CN5CCC(F)(F)CC5)c4)c4ccccc43)cn12 [Example 12, 1-{5-tert-Butyl-2-[3-(4,4-difluoro-piperidin-1-ylmethyl)-phenyl]-2H-pyrazol-3-yl}-3-[(1S,4R)-4-(3-isopropyl-[1,2,4]triazolo[4,3-a]pyridin-6-yloxy)-1,2,3,4-tetrahydro-naphthalen-1-yl]-urea]	10 to 100
10 to 100	CC(C)c1nnc2ccc(O[C@H]3CC[C@H](NC(=O)Nc4cc(C(C)(C)C)nn4-c4ccc(C#N)cc4)c4ccccc43)cn12 [Example 14, 1-[5-tert-Butyl-2-(4-cyano-phenyl)-2H-pyrazol-3-yl]-3-[(1S,4S)-4-(3-isopropyl-[1,2,4]triazolo[4,3-a]pyridin-6-yloxy)-1,2,3,4-tetrahydro-naphthalen-1-yl]-urea]	< 10
< 10	CC(C)c1nnc2ccc(O[C@H]3CC[C@H](NC(=O)Nc4cc(C(C)(C)C)nn4-c4ccc(CO)cc4)c4ccccc43)cn12 [Example 15, 1-[5-tert-Butyl-2-(4-hydroxymethyl-phenyl)-2H-pyrazol-3-yl]-3-[(1S,4S)-4-(3-isopropyl-[1,2,4]triazolo[4,3-a]pyridin-6-yloxy)-1,2,3,4-tetrahydro-naphthalen-1-yl]-urea]	< 10
< 10	CC(C)c1nnc2ccc(O[C@@H]3CC[C@H](NC(=O)Nc4cc(C(C)(C)C)nn4C4CCN(C)CC4)c4ccccc43)cn12 [Example 17, 1-[5-tert-Butyl-2-(1-methyl-piperidin-4-yl)-2H-pyrazol-3-yl]-3-[(1S,4R)-4-(3-isopropyl-[1,2,4]triazolo[4,3-a]pyridin-6-yloxy)-1,2,3,4-tetrahydro-naphthalen-1-yl]-urea]	100 to 1000
< 10	CC(C)c1nnc2ccc(O[C@@H]3CC[C@H](NC(=O)Nc4cc(C(C)(C)C)nn4CCN4CCOCC4)c4ccccc43)cn12 [Example 18, 1-[5-tert-Butyl-2-(2-morpholin-4-yl-ethyl)-2H-pyrazol-3-yl]-3-[(1S,4R)-4-(3-isopropyl[1,2,4]triazolo[4,3-a]pyridin-6-yloxy)-1,2,3,4-tetrahydro-naphthalen-1-yl]-urea]	10 to 100
< 10	CC(C)c1nnc2ccc(O[C@@H]3CC[C@H](NC(=O)Nc4cc(C(C)(C)C)nn4C)c4cc(F)ccc43)cn12 [Example 19, 1-(5-tert-Butyl-2-methyl-2H-pyrazol-3-yl)-3-[(1S,4R)-7-fluoro-4-(3-isopropyl-[1,2,4]triazolo[4,3-a]pyridin-6-yloxy)-1,2,3,4-tetrahydro-naphthalen-1-yl]-urea]	10 to 100
< 10	CC(C)c1nnc2ccc(O[C@@H]3CC[C@H](NC(=O)Nc4cc(C(C)(C)C)nn4-c4cccc(OCCN5CCC(O)CC5)c4)c4ccccc43)cn12 [Example 22, 1-(5-tert-Butyl-2-{3-[2-(4-hydroxy-piperidin-1-yl)-ethoxy]-phenyl}-2H-pyrazol-3-yl)-3-[(1S,4R)-4-(3-isopropyl-[1,2,4]triazolo[4,3-a]pyridin-6-yloxy)-1,2,3,4-tetrahydro-naphthalen-1-yl]-urea formate salt]	10 to 100
< 10	CC(C)c1nnc2ccc(O[C@@H]3CC[C@H](NC(=O)Nc4cc(C(C)(C)C)nn4-c4cccc(N5CCOCC5)c4)c4ccccc43)cn12 [Example 23, 1-[5-tert-Butyl-2-(3-morpholin-4-yl-phenyl)-2H-pyrazol-3-yl]-3-[(1S,4R)-4-(3-isopropyl-[1,2,4]triazolo[4,3-a]pyridin-6-yloxy)-1,2,3,4-tetrahydro-naphthalen-1-yl]-urea]	< 10
< 10	CC(C)(C)c1cc(NC(=O)N[C@H]2CC[C@@H](Oc3ccc4nnc(-c5c(Cl)cccc5Cl)n4c3)c3ccccc32)n(CCO)n1 [Example 26, 1-[5-tert-Butyl-2-(2-hydroxy-ethyl)-2H-pyrazol-3-yl]-3-{(1S,4R)-4-[3-(2,6-dichloro-phenyl)-[1,2,4]triazolo[4,3-a]pyridin-6-yloxy]-1,2,3,4-tetrahydro-naphthalen-1-yl}-urea]	< 10
< 10	CC(C)(C)c1cc(NC(=O)N[C@H]2CC[C@@H](Oc3ccc4nnc(-c5c(Cl)cccc5Cl)n4c3)c3ccccc32)n(CCN2CCOCC2)n1 [Example 27, 1-[5-tert-Butyl-2-(2-morpholin-4-yl-ethyl)-2H-pyrazol-3-yl]-3-{(1S,4R)-4-[3-(2,6-dichloro-phenyl)-[1,2,4]triazolo[4,3-a]pyridin-6-yloxy]-1,2,3,4-tetrahydro-naphthalen-1-yl}-urea formate salt]	< 10
< 10	CN(C)CCn1nc(C(C)(C)C)cc1NC(=O)N[C@H]1CC[C@@H](Oc2ccc3nnc(-c4c(Cl)cccc4Cl)n3c2)c2ccccc21 [Example 28, 1-[5-tert-Butyl-2-(2-dimethylamino-ethyl)-2H-pyrazol-3-yl]-3-{(1S,4R)-4-[3-(2,6-dichloro-phenyl)-[1,2,4]triazolo[4,3-a]pyridin-6-yloxy]-1,2,3,4-tetrahydro-naphthalen-1-yl}-urea formate salt]	< 10
< 10	CC(C)(C)c1cc(NC(=O)N[C@H]2CC[C@@H](Oc3ccc4nnc(-c5c(Cl)cccc5Cl)n4c3)c3ccccc32)n(CCN2CCCCC2)n1 [Example 29, 1-[5-tert-Butyl-2-(2-piperidin-1-yl-ethyl)-2H-pyrazol-3-yl]-3-{(1S,4R)-4-[3-(2,6-dichloro-phenyl)-[1,2,4]triazolo[4,3-a]pyridin-6-yloxy]-1,2,3,4-tetrahydro-naphthalen-1-yl}-urea formate salt]	< 10
< 10	CN1CCN(CCn2nc(C(C)(C)C)cc2NC(=O)N[C@H]2CC[C@@H](Oc3ccc4nnc(-c5c(Cl)cccc5Cl)n4c3)c3ccccc32)CC1 [Example 30, 1-{5-tert-Butyl-2-[2-(4-methyl-piperazin-1-yl)-ethyl]-2H-pyrazol-3-yl}-3-{(1S,4R)-4-[3-(2,6-dichloro-phenyl)-[1,2,4]triazolo[4,3-a]pyridin-6-yloxy]-1,2,3,4-tetrahydro-naphthalen-1-yl}-urea formate salt]	< 10
< 10	CC(C)(C)c1cc(NC(=O)N[C@H]2CC[C@@H](Oc3ccc4nnc(-c5ccccc5Cl)n4c3)c3ccccc32)n(CCO)n1 [Example 31, 1-[5-tert-Butyl-2-(2-hydroxy-ethyl)-2H-pyrazol-3-yl]-3-{(1S,4R)-4-[3-(2-chloro-phenyl)-[1,2,4]triazolo[4,3-a]pyridin-6-yloxy]-1,2,3,4-tetrahydro-naphthalen-1-yl}-urea]	< 10
< 10	CC(C)(C)c1cc(NC(=O)N[C@H]2CC[C@@H](Oc3ccc4nnc(-c5ccccc5Cl)n4c3)c3ccccc32)n(CCN2CCOCC2)n1 [Example 32, 1-[5-tert-Butyl-2-(2-morpholin-4-yl-ethyl)-2H-pyrazol-3-yl]-3-{(1S,4R)-4-[3-(2-chloro-phenyl)-[1,2,4]triazolo[4,3-a]pyridin-6-yloxy]-1,2,3,4-tetrahydro-naphthalen-1-yl}-urea formate salt]	< 10
< 10	Cn1nc(C(C)(C)C)cc1NC(=O)N[C@H]1CC[C@@H](Oc2ccc3nnc(-c4c(Cl)cccc4Cl)n3c2)c2ccccc21 [Example 33, 1-(5-tert-Butyl-2-methyl-2H-pyrazol-3-yl)-3-{(1S,4R)-4-[3-(2,6-dichlorophenyl)-[1,2,4]triazolo[4,3-a]pyridin-6-yloxy]-1,2,3,4-tetrahydronaphthalen-1-yl]-urea]	< 10
< 10	CC(C)(C)c1cc(NC(=O)N[C@H]2CC[C@@H](Oc3ccc4nnc(C5CCCCC5)n4c3)c3ccccc32)n(CCN2CCOCC2)n1 [Example 34, 1-[5-tert-Butyl-2-(2-morpholin-4-yl-ethyl)-2H-pyrazol-3-yl]-3-[(1S,4R)-4-(3-cyclohexyl-[1,2,4]triazolo[4,3-a]pyridin-6-yloxy)-1,2,3,4-tetrahydro-naphthalen-1-yl]-urea partial formate salt]	< 10

— patent US9029373B2, “Kinase inhibitors” (Chiesi Farmaceutici S.p.A., priority 2011, dated 2015)
